Assay results as given in PubChem BioAssay (NCI).
Several values for one entry are separate records, joined by “and”; a condition that tells them apart may be missing. Equal values may be shown once.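 Method: 48-hour compound exposure of cells in 96-well plates, five concentrations, linear interpolation of endpoints. GI50 is the concentration that inhibits growth by half. TGI: total growth inhibition.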

Experiments:
Test in all cases: growth of human tumour cells (NCI), 48 h
UO-31 renal = test system: UO-31 renal
SNB-19 CNS = test system: SNB-19 CNS
SK-MEL-28 melanoma = test system: SK-MEL-28 melanoma
HCC-2998 colon = test system: HCC-2998 colon
UACC-62 melanoma = test system: UACC-62 melanoma
OVCAR-5 ovarian = test system: OVCAR-5 ovarian
EKVX NSCLC = test system: EKVX NSCLC
RPMI-8226 leukemia = test system: RPMI-8226 leukemia
TK-10 renal = test system: TK-10 renal
RXF 393 renal = test system: RXF 393 renal

Row | Structure (SMILES) | TGI (UO-31 renal) [µM] | TGI (SNB-19 CNS) [µM] | TGI (SK-MEL-28 melanoma) | TGI (HCC-2998 colon) [µM] | TGI (UACC-62 melanoma) | TGI (OVCAR-5 ovarian) [µM] | TGI (EKVX NSCLC) | TGI (RPMI-8226 leukemia) [µM] | TGI (TK-10 renal) | TGI (RXF 393 renal) | GI50 (UO-31 renal) [µM] | GI50 (RXF 393 renal) [µM] | GI50 (SNB-19 CNS) [µM] | GI50 (SK-MEL-28 melanoma) [µM] | GI50 (UACC-62 melanoma) [µM] | GI50 (OVCAR-5 ovarian) [µM] | GI50 (EKVX NSCLC) [µM] | GI50 (RPMI-8226 leukemia) [µM] | GI50 (TK-10 renal) [µM] | GI50 (HCC-2998 colon) [µM]
1 | OCCC1(O)CCC(O)CC1 (configuration not stated) | > 100 | > 100 | > 100 µM | > 100 | > 100 µM | > 100 | > 100 µM | > 100 | > 100 µM | – | – | – | – | – | – | – | – | – | – | –
2 | COC1C(CN[N+](=O)CC2OC3OC(C)(C)OC3C2OC)OC2OC(C)(C)OC21 (configuration not stated) | > 100 | > 100 | > 100 µM | > 100 | > 100 µM | > 100 | > 100 µM | – | > 100 µM | > 100 µM | – | – | – | – | – | – | – | – | – | –
3 | CC1=C(C(=O)Nc2ccc([N+](=O)[O-])cc2)C(c2ccc(N(C)C)cc2)C(C(=O)Nc2ccc([N+](=O)[O-])cc2)=C(C)N1 | > 100 | > 100 | 28.2 µM | 25.8 | – | 67 | 90.4 µM | 43.2 | 92.2 µM | 30.9 µM | – | – | – | – | – | – | – | – | – | –
4 | O=[N+]([O-])/C=C\c1ccc(Cl)c(Cl)c1 | 2.33 | 16.7 | 6.54 µM | – | 30.1 µM | 31.3 | 17.5 µM | 0.624 | 12 µM | 3.11 µM | 1.08 | 1.68 | 3.77 | 2.48 | 10.9 | 8.89 | 4.01 | 0.249 | 3.48 | –
5 | COc1cc(C2c3cc4c(cc3C(NCC(O)CO)C3COC(=O)[C@H]23)OCO4)cc(OC)c1OC (some centres not stated) | > 100 | > 100 | > 100 µM | > 100 | > 100 µM | > 100 | > 100 µM | > 100 | > 100 µM | – | – | – | – | – | – | – | – | – | – | –
6 | Cc1nc2c(nc1Cl)nc(Oc1ccc(Cl)cc1)c1ccccc12 | 73.7 | > 100 | > 100 µM | > 100 | > 100 µM | > 100 | > 100 µM | > 100 | – | – | – | – | – | – | – | – | – | – | – | –
7 | CSc1cc(N=Nc2nc3ccccc3s2)c2ccccc2c1O | 15.9 | 25.7 | 18.6 µM | – | 11.9 µM | 28.7 | 16.4 µM | 25.6 | 28.7 µM | 14.3 µM | 7.61 | 5.99 | 9.59 | 8.01 | 5.41 | 16.1 | 7.2 | 2.51 | 12.6 | –
8 | N#C/C(=C1C=C/C(=N/O)C(Br)=C/1)c1ccccc1 | 15.4 | > 100 | 31.1 µM | 20.7 | 16 µM | 6.8 | – | 11.5 | 16.5 µM | 11.5 µM | 2.04 | 3.01 | 8.7 | 10.3 | 2.97 | 2.6 | – | 0.36 | 5.02 | 5.02
9 | CCOc1ccc2c(c1)[n+]([O-])c(S(=O)(=O)c1ccc(C)cc1)c(N)[n+]2[O-] | > 100 | > 100 | > 100 µM | > 100 | > 100 µM | > 100 | > 100 µM | > 100 | > 100 µM | – | – | – | – | – | – | – | – | – | – | –
10 | Nc1ccn(C2O[C@H](CO)[C@@H](O)[C@@H]2O)c(=O)n1 (some centres not stated) | > 100 | > 100 | > 100 µM | > 100 | > 100 µM | > 100 | > 100 µM | – | > 100 µM | > 100 µM | – | – | – | – | – | – | – | – | – | 68.5
11 | O=C(O)Cn1ccc(=O)c2ccc([N+](=O)[O-])cc21 | > 100 | > 100 | > 100 µM | > 100 | > 100 µM | > 100 | – | – | > 100 µM | – | – | – | – | – | – | – | – | – | – | –
12 | CC1(C)CC(/C=C2/OC(=O)c3ccccc32)=C(C#N)C(=O)O1 | > 100 | > 100 | > 100 µM | > 100 | > 100 µM | > 100 | > 100 µM | > 100 | – | – | – | – | – | – | – | – | – | – | – | –
13 | CCOC(=O)/C=C(/C(=O)OCC)n1cc(Cl)c(=O)n(CC(=O)OCC)c1=O | – | > 100 | 10.5 µM and 42.2 µM | – | 8.88 µM and 33.6 µM | – | 10.3 µM and 53.1 µM | 5.73 | 8.29 µM and 23.8 µM | 8.55 µM and 2.59 µM | – | 0.298 | 32.7 | 20.3 | 18.6 | 36.6 | 23.4 | – | 11.5 | –
14 | O=C1/C(=C/c2ccc(Cl)cc2Cl)N=C(c2ccccc2)N1Cc1ccco1 | > 100 | – | – | 76.1 | 41.6 µM | > 100 | 75 µM | 92 | 49.3 µM | 51.8 µM | 23.9 | 22.6 | – | – | 18.1 | 34.5 | 27.3 | 23.8 | 22.1 | 26.7
15 | N=C1CSC2=NC3=C(CCC/C3=C\c3ccccc3)C(c3ccccc3)N12 (configuration not stated) | 27.4 | 19.9 | – | 10.6 | 23 µM | 20.1 | 9.54 µM | 5.57 | 18.1 µM | 17.4 µM | – | – | – | – | – | – | – | – | – | –
16 | COc1ccc2[nH]c3c(C)c4c(c(C)c3c2c1)CN(C)CC4 | 30 | 48.5 | 27.5 µM | 31.4 | 34.8 µM | 54.2 | – | 93.3 | 42.9 µM | 36.2 µM | – | – | – | – | – | – | – | – | – | –
17 | COC(=O)C[C@H]1CCC2(OCCO2)[C@]1(C)C(=O)OC | > 100 | > 100 | > 100 µM | – | > 100 µM | > 100 | > 100 µM | > 100 | > 100 µM | > 100 µM | – | – | – | – | – | – | – | – | – | –
18 | CN(C)CCNc1cc(-c2ccccc2)nc2ccccc12 | 26.9 | 49.7 | 28.5 µM | 25.1 | 30 µM | 36.8 | – | 21.8 | 38.8 µM | – | 4.01 | – | 14.6 | 13.4 | 13.7 | 5.9 | – | 4.09 | 6.94 | 10.2
19 | COc1ccc2cc1Oc1ccc(cc1)CC1c3cc(c(OC)cc3CCN1C)Oc1c3c(cc4c1C(C2)N(C)CC4)OCO3 (configuration not stated) | – | 31.5 | 12.1 µM | 24.2 | 30.1 µM | 32.4 | 29.8 µM | – | 5.66 µM | 6.24 µM | – | – | – | – | – | – | – | – | – | –
20 | O=C1C=CC(=Nc2ccc3c(c2)C(Br)c2ccccc2-3)O1 (configuration not stated) | > 100 | > 100 | > 100 µM | > 100 | > 100 µM | – | > 100 µM | > 100 | > 100 µM | > 100 µM | – | – | – | – | – | – | – | – | – | –
